The values below come from PMC10675073, “Effect of Phenolics from Aeonium arboreum on Alpha Glucosidase, Pancreatic Lipase, and Oxidative Stress; a Bio-Guided Approach” (Pharmaceutics, 2023).

The nature of assay [1]: Oxygen radical absorbance capacity (ORAC) assay. As to conditions: Table S6; per mM compound. As for the experimental part:
Trolox (positive control) was prepared at 2 mM in MeOH then serially diluted into ten concentrations 1000, 800, 700, 600, 500, 400, 300, 200, 100, and 50 μM for the concentration–response curve construction. The total extract and DCM fractions were made at 0.2 mg/mL in methanol, 100% and 50% were prepared at 0.05 mg/mL in methanol, while quercetin rhamnoside was prepared at a concentration of 0.225 mM in methanol. The assay was carried out using Liang et al.’s (2014) methodology, with minor modifications. In brief, 10 μL of the prepared samples were allowed to sit at 37 °C for 10 min with […] of fluoresceine (100 nM). For the background measurement, fluorescence measurements (485 EX, 520 EM, nm) were carried out three times for a total of 90 s each (range 1, Figure 1). Then, 70 μL of freshly made 2,2′-Azobis (2-amidinopropane) dihydrochloride (AAPH) (300 mM) was added to each well. For 60 min (40 cycles, each lasting 90 sec), the measurement of fluorescence (485 EX, 520 EM, nm) was maintained. The antioxidant impact of the samples was determined as the μM Trolox equivalent using the linear regression equation, and the data are shown as means (n = 3) SD.

Assay [2] concerns the target T1, Saccharomyces cerevisiae α-glucosidase (Saccharomyces cerevisiae, UniProt P53341).
T1 construct: purchased Sigma-Aldrich G5003-100UN
The experiment in a line: α-glucosidase enzyme inhibition (pNPG, colorimetric). Type of assay: biochemical. As to conditions: pure compounds, read-out: IC50 (Mean ± SE).
Experimental: Saccharomyces cerevisiae’s α-glucosidase was utilized (Sigma-Aldrich, St. Louis, MO, USA Cat#G5003-100UN). […] Seven concentrations, comprising 31.25, 62.5, 125, 250, 500, 750, and 1000 µM, were prepared from the buffer. […] Using p-nitrophenyl-D-glucopyranoside (pNPG) as a substrate, the inhibitory activity of α-Glucosidase was evaluated colorimetrically by applying the technique described by Gutiérrez-Grijalva et al. with minor modification. In 96-microwell plates, 25 μL of samples/blank were combined with 50 μL of S. cerevisiae α-glucosidase (0.6 U/mL) in phosphate buffer (0.1 M, pH 7) for 10 min at 37 °C. The mixture was then incubated once again for 5 min at 37 °C after the addition of 25 μL of 3 mM pNPG as a substrate in phosphate buffer (pH 7). Utilizing a microplate reader (Tecan, Männedorf, Switzerland) to measure the release of p-nitrophenol from the pNPG substrate at 405 nm, enzyme activity was ascertained [23]. After determining the absorbance (A), the inhibition % of -glucosidase was determined using the formula:% Inhibition = [(A blank − A sample)/A blank] × 100

The nature of assay [3]: Metal chelation assay (Ferrozine). The procedure:
Except for quercetin rhamnoside, all the samples were prepared at a concentration of 0.2 mg/mL in methanol. A stock solution of EDTA (positive control) was made at a concentration of 0.1 mM in water and serially diluted into seven concentrations (80, 70, 60, 50, 40, 20, and 10 μM) for the purpose of creating a concentration–response curve. The method described in [28] was used for the Ferrozine iron metal chelation test, with a few minor adjustments made for microplates. In brief, 50 μL of the sample or substance on a 96-well plate and 50 μL of acetate buffer pH = 6 (n = 6) were combined with 20 μL of newly produced ferrous sulphate (0.3 mM in acetate buffer pH = 6). Then, each well received 30 μL of Ferrozine (0.8 mM in acetate buffer, pH = 6). For 10 min, the reaction mixture was incubated at room temperature. At the completion of the incubation period, the FluoStar Omega microplate reader was used to measure the reduction in the intensity of the produced color. The following equation describes how data are expressed as means ± SD:% Inhibition = [(Average Absorbance of blank − Average Absorbance of Test)/Average Absorbance of blank] × 100
The samples’ antioxidant potential was calculated as μM EDTA equivalents using the linear regression equation.

Assay [4] deals with T2, porcine pancreatic lipase (PPL) (Sus scrofa, UniProt P00591).
T2 sequence (P00591 1-450): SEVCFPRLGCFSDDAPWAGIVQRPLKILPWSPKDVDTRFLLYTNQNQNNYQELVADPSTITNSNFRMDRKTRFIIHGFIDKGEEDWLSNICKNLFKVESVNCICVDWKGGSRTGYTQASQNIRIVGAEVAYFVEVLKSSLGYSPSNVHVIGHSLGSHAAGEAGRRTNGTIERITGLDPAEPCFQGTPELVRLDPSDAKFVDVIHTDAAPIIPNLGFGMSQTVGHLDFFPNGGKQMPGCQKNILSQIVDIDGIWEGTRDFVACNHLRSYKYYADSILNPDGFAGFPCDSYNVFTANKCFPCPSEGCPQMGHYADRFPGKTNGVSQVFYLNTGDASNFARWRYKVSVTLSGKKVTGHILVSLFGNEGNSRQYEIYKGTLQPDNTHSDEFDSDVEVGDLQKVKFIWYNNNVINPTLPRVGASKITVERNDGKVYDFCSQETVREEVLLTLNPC
The experiment in a line: Pancreatic lipase enzyme inhibition (p-NPD). Type of assay: biochemical. As for the experimental part:
P-nitrophenyl dodecanoate (p-NPD from Sigma Aldrich, St. Louis, MO, USA) was used as the substrate, and porcine pancreatic lipase (PPL) was prepared as previously stated by with minor modification. In sum, 25 μL of prepared samples along with a blank were first incubated with 50 µL of PPL (1 mg/mL) in a Tris-HCl buffer (100 mM, pH 8) for 10 min prior to detecting the PPL activity. Following the addition of […] of p-NPD (10 mM in isopropanol), the reaction was then incubated again at 37 °C for 20 min. using […] of Tris-HCl buffer as a volume diluent.

Assay [5] in a line: ABTS assay. As to conditions: for % inhibition: standard curve (Figure S11). The procedure: In brief, the production of the ABTS radical cation (ABTS•+) involved mixing 5 mL of ABTS aqueous solution (7 mM) with […] of potassium persulfate (140 mM) while the mixture was left at room temperature for 16 h in the dark. […] The absorbance was then measured at 690 nm using a microplate reader (Tecan, USA). According to the following equation, data are shown as means (n = 3) SD:% Inhibition = [(A blank - A sample)/A blank] × 100 Using the linear regression method, the antioxidant effect of the various samples was determined as μM ascorbic acid equivalent.

Assay [6] in a line: Ferric reducing antioxidant power (FRAP) assay. As for the experimental part:
The samples were made in a mixture of methanol: DMSO (10:1) at a concentration of 2 mg/mL, while quercetin rhamnoside was made at a concentration of 0.9 mM. To produce the concentration–response curve, seven concentrations, including 7.812, 15.625, 31.25, 62.5, 125, 250, and 500 µM, were created from a stock solution of 1000 µM concentration of ascorbic acid, the positive control. According to the procedure of Benzie et al., this assay was conducted with minor modifications. It depends on Fe^3+ reduction into Fe^2+ which forms a colored complex with 2,4,6-tris (2-pyridyl)-s-[…] (TPTZ). In brief, in a 96-well plate (n = 3), […] of the sample was combined with […] of freshly made TPTZ reagent (300 mM acetate buffer (pH = 3.6), 10 mM TPTZ in 40 mM HCl, and 20 mM FeCl3, in that order; respectively). The reaction was then allowed to run at room temperature for 30 min while kept in a dark place, and the absorbance was measured at 593 nm. Data are shown as means ± SD [26]. […]

As usually defined, the IC50 is the concentration that gives 50% inhibition. One may read the inhibition as the change of the read-out against control, counted positive when it falls. One may read the % inhibition as the drop in the measured response relative to a control, in per cent. Low values mean a weak effect, high ones a strong effect.

T1 sequence (P53341 whole entry): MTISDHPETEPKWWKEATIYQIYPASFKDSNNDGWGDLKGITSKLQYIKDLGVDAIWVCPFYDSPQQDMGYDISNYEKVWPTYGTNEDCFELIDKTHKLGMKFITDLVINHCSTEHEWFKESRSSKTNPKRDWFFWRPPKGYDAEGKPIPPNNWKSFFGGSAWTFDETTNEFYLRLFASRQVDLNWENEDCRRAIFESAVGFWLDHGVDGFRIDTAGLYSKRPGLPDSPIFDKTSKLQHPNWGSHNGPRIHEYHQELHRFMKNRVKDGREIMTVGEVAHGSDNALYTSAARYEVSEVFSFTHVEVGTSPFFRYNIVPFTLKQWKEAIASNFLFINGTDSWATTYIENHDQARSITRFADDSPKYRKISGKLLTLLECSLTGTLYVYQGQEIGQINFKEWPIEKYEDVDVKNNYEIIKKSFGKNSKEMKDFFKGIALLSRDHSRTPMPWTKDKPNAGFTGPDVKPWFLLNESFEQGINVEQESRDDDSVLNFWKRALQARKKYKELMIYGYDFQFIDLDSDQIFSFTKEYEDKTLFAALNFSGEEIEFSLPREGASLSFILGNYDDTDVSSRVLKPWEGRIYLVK

With `CC1OC(Oc2c(-c3ccc(O)c(O)c3)oc3cc(O)cc(O)c3c2=O)C(O)C(O)C1O` (stereo not drawn) [Quercetin-3-rhamnoside, quercetin-3-O-α-rhamnoside], the “Antioxidant activity using ORAC assay” value in assay [1] stood at 25258.39 µMT eq/mM. In addition, the IC50 was 126.4 ± 1.04 µM in assay [2] and > 500 µM in assay [4] (pure compounds, read-out: IC50 (µM) (Mean ± SE)). Moreover, the “EDTA equivalent per mM sample” value in assay [3] (Table S7) is given as 377.98 µM eq/ mM sample. In assay [3] (per mM compound), the “Metal chelation activity, EDTA equivalent” value was determined as 377.98 ± 10.17 μmolar EDTAE/mM. The inhibition at 500 µM in assay [4] (500 µM, read-out: % Inhibition (Mean ± SD)) amounted to 19.1 ± 0.34%. Further, the “ABTS antioxidant activity, ascorbic acid equivalent” value in assay [5] (per mM compound) is given as 1338.1 ± 81.38 μM AAE/mM. Also, in assay [6] (Table S5, FRAP), the “Trolox equivalent per mM sample” value was 1681.23 µM TE/mM sample. Moreover, the “FRAP antioxidant activity, Trolox equivalent” value in assay [6] (per mM compound) was 1681.2 ± 49.9 μmolar TE/mM.
Consider `O=C1O[C@H]([C@@H](O)CO)C(O)=C1O` [ascorbic acid], for which the “% inhibition” value in assay [5] (7.8125 µM) was found to be 2.8930%; in assay [5] (15.625 µM), 3.7803%; in assay [5] (31.25 µM) it was 5.5156%; in assay [5] (62.5 µM), 9.7291%; in assay [5] (125 µM) it was 16.88%; in assay [5] (250 µM), 33.5451%. Further, the “% inhibition” value in assay [5] (500 µM) is on record as 62.86%.
